Experimental data as given in patent publication US8163718B2, “Nucleoside analogues containing phosphonate or phosphonamide groups” (Gilead Sciences, Inc., priority 2008, dated 2012).

Key:
Assay in all cases: Cytostatic cell culture assay (GI50), SRB
Assay type in all cases: cell-based
NCI-H23 = conditions: Homo sapiens, NCI-H23, 120 h; 5 days incubation
Procedure, shortened: (§1)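 Read-out is OD 500 nm of protein-bound sulforhodamine B extracted in 10 mM Tris pH 10.5 from TCA-fixed cells after 5 days of compound exposure at 37 °C. Growth is expressed relative to a day-zero plate and to untreated cells, and GI50 is fitted with a sigmoidal dose-response equation.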

HCT-15 = conditions: Homo sapiens, HCT-15, 120 h; 5 days incubation
Procedure, shortened: as §1

Hs-578 = conditions: Hs578, 120 h; 5 days incubation
Procedure, shortened: as §1

PC3 = conditions: Homo sapiens, PC-3, 120 h; 5 days incubation
Procedure, shortened: as §1

Du-145 = conditions: Homo sapiens, DU-145, 120 h; 5 days incubation
Procedure, shortened: as §1

BT-549 = conditions: Homo sapiens, BT-549, 120 h; 5 days incubation
Procedure, shortened: as §1

A549 = conditions: Homo sapiens, A549, 120 h; 5 days incubation
Procedure, shortened: as §1

HCT-116 = conditions: Homo sapiens, HCT-116, 120 h; 5 days incubation
Procedure, shortened: as §1

GI50 (NCI-H23): 0.002 µM
GI50 (HCT-15): 6.7 µM
GI50 (PC3): 0.026 µM
GI50 (Du-145): 0.002 µM
GI50 (BT-549): 0.033 µM
GI50 (A549): 0.128 µM
GI50 (HCT-116): 0.041 µM
Structure (SMILES): CCCOc1nc(N)nc2c1ncn2CCOCP(=O)(N1CCC[C@H]1C(=O)OCC)N1CCC[C@H]1C(=O)OCC [Example 21]
GI50 (Hs-578): 0.017 µM
